Measured values taken from patent US20260297094A1, “Tetracyclic Compounds as SMARCA2 and/or SMARCA4 Degraders” (Aurigene Oncology Limited, priority 2023, published 2026).
Structures can show the parent of a compound that is named as a salt.

Legend:
SK-MEL-5 cells = test: Anti proliferative activity in SK-MEL-5 cells by Cell Titer Glo (Promega) assay; format: cell-based; conditions: Homo sapiens, retreatment on Day 4, terminated on day 8, CellTiter-Glo
Description: Example-P1: Determination of Anti Proliferative Activity of Compounds in Cell Lines SK-MEL-5 by Cell Titer Glo® (Promega) Assay
Cells were seeded into 96-well plates and the plate was incubated in 37 degrees incubator overnight. The next day, compounds were diluted 3-fold to cover 9-point concentration range in DMSO. Intermediate plate dilution was prepared in media followed with compound treatment in cells. Retreatment of cells with compound dilutions was performed on Day 4 and assay was terminated on day 8 for SK-MEL-5 cells using CellTiter-Glo and the plate was kept on orbital shaker for 20 minutes at RT. Assay was terminated on day 6 for RERF-LC-A1 without a compound retreatment. Luminescence signal was recorded on VICTOR^3 instrument. Percent inhibition of proliferation was calculated at each concentration and plotted against the compound concentration. EC50 value was calculated using GraphPad® software.

MV-4-11 cells = test: Anti proliferative activity in MV-4-11 cells by Cell Titer Glo (Promega) assay; format: cell-based; conditions: Homo sapiens, MV4-11, 72 h, 3 days, CellTiter-Glo
Description: Example-P2: Determination of Anti Proliferative Activity of Compounds in Cell Lines MV-4-11 by Cell Titer Glo® (Promega) Assay
MV-4-11 (CRL-9591™) cells were seeded in 96 well plate flat black clear bottom plates (Corning, Cat. No 3904) using complete DMEM Medium. Next day, selected compounds of the present invention were added to cells from 10 mM stocks made in DMSO (Sigma Cat no. D2650). Each concentration of compound was tested in triplicate with DMSO concentration at a final percentage not exceeding 0.3 in the cells. After the incubation of MV-4-11 cells with compound for 3 days; assay was terminated using 100 μl of CellTiter Glo® reagent (Promega, Cat. no G7572). CellTiter-Glo® Luminescent reagent determines the number of viable cells based on quantitation of ATP present which is an indicator of cell number and metabolic activity. Luminescence readings were taken in Victor-5 instrument. Percent inhibition of proliferation was calculated using formula, % inhibition=100−(luminescence value of test/luminescence value of DMSO control)*100. DMSO control (0%)=Cells in complete media with DMSO; blank=Media alone containing DMSO. EC50 was calculated using graph pad prism software.

EC50 (SK-MEL-5 cells) [nM] | EC50 (MV-4-11 cells) [nM] | Structure (SMILES)
< 10 | < 10 | Cn1c2cc(N3CCC(N4CCC(c5ccc6c(c5)CN(C5CCC(=O)NC5=O)C6=O)CC4)CC3)ccc2n2c3cccc(Cl)c3c(=O)nc12 (stereo not drawn) [Compound 27, 3-(5-(1′-(4-chloro-7-methyl-5-oxo-5,7-dihydrobenzo[4,5]imidazo[1,2-a]quinazolin-9-yl)-[1,4′-bipiperidin]-4-yl)-1-oxoisoindolin-2-yl)piperidine-2,6-dione]
> 100 | > 100 | O=C1CCC(N2Cc3cc(C4CCN(C5CCN(c6ccc7c(c6)n(C6CCCC6)c6nc(=O)c8cnccc8n76)CC5)CC4)ccc3C2=O)C(=O)N1 (stereo not drawn) [Compound 19, 3-(5-(1′-(7-cyclopentyl-5-oxo-5,7-dihydrobenzo[4,5]imidazo[1,2-a]pyrido[3,4-e]pyrimidin-9-yl)-[1,4′-bipiperidin]-4-yl)-1-oxoisoindolin-2-yl)piperidine-2,6-dione]
< 10 | < 10 | CC(C)n1c2cc(N3CCC(N4CCC(c5ccc6c(c5)CN(C5CCC(=O)NC5=O)C6=O)CC4)CC3)ccc2n2c3cccc(Cl)c3c(=O)nc12 (stereo not drawn) [Compound 28, 3-(5-(1′-(4-chloro-7-isopropyl-5-oxo-5,7-dihydrobenzo[4,5]imidazo[1,2-a]quinazolin-9-yl)-[1,4′-bipiperidin]-4-yl)-1-oxoisoindolin-2-yl)piperidine-2,6-dione-HCl salt]
> 100 | > 100 | Cn1nc(N2CCC(=O)NC2=O)c2cc(F)c(N3CCN(C4CCN(c5ccc6c(c5)n(C)c5nc(=O)c7c(N)cccc7n65)CC4)CC3)cc21 [Compound 41, 1-(6-(4-(1-(4-amino-7-methyl-5-oxo-5,7-dihydrobenzo[4,5]imidazo[1,2-a]quinazolin-9-yl)piperidin-4-yl)piperazin-1-yl)-5-fluoro-1-methyl-1H-indazol-3-yl)dihydropyrimidine-2,4(1H,3H)-dione]
> 100 | > 100 | O=C1CCC(N2Cc3cc(C4CCN(C5CCN(c6ccc7c(c6)n(C6CCCC6)c6nc(=O)c8ccccc8n76)CC5)CC4)ccc3C2=O)C(=O)N1 (stereo not drawn) [Compound 10, 3-(5-(1′-(7-cyclopenty1-5-oxo-5,7-dihydrobenzo[4,5]imidazo[1,2-a]quinazolin-9-yl)-[1,4′-bipiperidin]-4-yl)-1-oxoisoindolin-2-yl)piperidine-2,6-dione]
> 100 | > 100 | Cn1c2cc(N3CCN(CC4CCN(c5ccc6c(c5)CN(C5CCC(=O)NC5=O)C6=O)CC4)CC3)ccc2n2c3cccc(N)c3c(=O)nc12 (stereo not drawn) [Compound 43, 3-(5-(4-((4-(4-amino-7-methyl-5-oxo-5,7-dihydrobenzo[4,5]imidazo[1,2-a]quinazolin-9-yl)piperazin-1-yl)methyl)piperidin-1-yl)-1-oxoisoindolin-2-yl)piperidine-2,6-dione]
> 100 | > 100 | O=C1CCC(N2C(=O)c3ccc(N4CCN(c5ccc6c(c5)n(C5CCCC5)c5nc(=O)c7c(Br)cccc7n65)CC4)cc3C2=O)C(=O)N1 (stereo not drawn) [Compound 5, 5-(4-(4-bromo-7-cyclopentyl-5-oxo-5,7-dihydrobenzo[4,5]imidazo[1,2-a]quinazolin-9-yl)piperazin-1-yl)-2-(2,6-dioxopiperidin-3-yl)isoindoline-1,3-dione]
> 100 | > 100 | COc1cccc2c1c(=O)nc1n(C3CCCC3)c3cc(N4CCC(N5CCC(c6ccc(NC7CCC(=O)NC7=O)cc6F)CC5)CC4)ccc3n21 (stereo not drawn) [Compound 11, 3-((4-(1′-(7-cyclopentyl-4-methoxy-5-oxo-5,7-dihydrobenzo[4,5]imidazo[1,2-a]quinazolin-9-yl)-[1,4′-bipiperidin]-4-yl)-3-fluorophenyl)amino)piperidine-2,6-dione]
> 100 | > 100 | Cc1cccc2c1c(=O)nc1n(C3CCCC3)c3cc(N4CCC(N5CCC(c6ccc(NC7CCC(=O)NC7=O)cc6F)CC5)CC4)ccc3n21 (stereo not drawn) [Compound 33, 3-((4-(1′-(7-cyclopentyl-4-methyl-5-oxo-5,7-dihydrobenzo[4,5]imidazo[1,2-a]quinazolin-9-yl)-[1,4′-bipiperidin]-4-yl)-3-fluorophenyl)amino)piperidine-2,6-dione]
